Reference: paper PMC8078842 (PLoS Neglected Tropical Diseases, 2021)
Several values for one entry are separate records, joined by “and”; a condition that tells them apart may be missing. Equal values may be shown once.

Test: In situ brain/choroid plexus perfusion (10 or 30 minutes) with capillary depletion
Conditions: for RTISSUE/PLASMA% (mean±SEM) Caudate putamen / RTISSUE/PLASMA% (mean±SEM) Cerebellum / RTISSUE/PLASMA% (mean±SEM) Choroid plexus / RTISSUE/PLASMA% (mean±SEM) Corpus callosum / RTISSUE/PLASMA% (mean±SEM) Frontal cortex / RTISSUE/PLASMA% (mean±SEM) Hippocampus / RTISSUE/PLASMA% (mean±SEM) Homogenate / RTISSUE/PLASMA% (mean±SEM) Hypothalamus / RTISSUE/PLASMA% (mean±SEM) Occipital cortex / RTISSUE/PLASMA% (mean±SEM) Pellet / RTISSUE/PLASMA% (mean±SEM) Pineal gland / RTISSUE/PLASMA% (mean±SEM) Pituitary gland / RTISSUE/PLASMA% (mean±SEM) Pons / RTISSUE/PLASMA% (mean±SEM) Supernatant / RTISSUE/PLASMA% (mean±SEM) Thalamus / RTISSUE/PLASMA% (mean ± SEM) of [^3H]pentamidine: not corrected for vascular space; for RTISSUE/PLASMA% (mean ± SEM) of [^3H]pentamidine: 30 min perfusion
[1] = 15.7 nM, 10 minutes perfusion, corrected for vascular space
[2] = 15.7 nM, 10 minutes perfusion, corrected for vascular space, listed as [^3H]pentamidine
[3] = 10 minutes perfusion, listed as Control A [^3H]pentamidine
[4] = 10 minutes perfusion, listed as Control B [^3H]pentamidine

[^3H(G)]pentamidine
RCORR TISSUE% caudate putamen [1]: 4.02 (± 1.03) %
RCORR TISSUE% cerebellum [1]: 3.82 (± 0.64) %
RCORR TISSUE% choroid plexus [1]: 490.9 (± 103.1) %
RCORR TISSUE% corpus callosum [1]: 6.73 (± 2.65) %
RCORR TISSUE% frontal cortex [1]: 4.29 (± 0.93) %
RCORR TISSUE% hippocampus [1]: 4.37 (± 0.97) %
RCORR TISSUE% homogenate [1]: 4.61 (± 0.94) %
RCORR TISSUE% hypothalamus [1]: 5.56 (± 1.58) %
RCORR TISSUE% occipital cortex [1]: 4.03 (± 0.98) %
RCORR TISSUE% pellet [1]: 12.54 (± 1.74) %
RCORR TISSUE% pineal gland [1]: 284.7 (± 81.4) %
RCORR TISSUE% pons [1]: 7.16 (± 1.75) %
RCORR TISSUE% supernatant [1]: less than 2%
RCORR TISSUE% thalamus [1]: 4.76 (± 0.91) %
RCORR TISSUE% pituitary gland [2]: 182.75(± 29.6) % and 182.75(± 37.5) %
RCORR TISSUE% supernatant [2]: 1.99 (± 0.45) %
RTISSUE/PLASMA% (mean±SEM) Caudate putamen [3]: 4.08 (± 0.84) %
RTISSUE/PLASMA% (mean±SEM) Cerebellum [3]: 5.28 (± 0.56) %
RTISSUE/PLASMA% (mean±SEM) Choroid plexus [3]: 385.74 (± 24.35) %
RTISSUE/PLASMA% (mean±SEM) Corpus callosum [3]: 5.32 (± 1.47) %
RTISSUE/PLASMA% (mean±SEM) Frontal cortex [3]: 4.88 (± 1.18) %
RTISSUE/PLASMA% (mean±SEM) Hippocampus [3]: 3.48 (± 0.94) %
RTISSUE/PLASMA% (mean±SEM) Homogenate [3]: 4.03 (± 0.78) %
RTISSUE/PLASMA% (mean±SEM) Hypothalamus [3]: 5.96 (± 1.23) %
RTISSUE/PLASMA% (mean±SEM) Occipital cortex [3]: 4.56 (±0.87) %
RTISSUE/PLASMA% (mean±SEM) Pellet [3]: 4.11 (± 1.24) %
RTISSUE/PLASMA% (mean±SEM) Pineal gland [3]: 367.59 (± 39.97) %
RTISSUE/PLASMA% (mean±SEM) Pituitary gland [3]: 251.21 (± 66.80) %
RTISSUE/PLASMA% (mean±SEM) Pons [3]: 7.81 (± 0.90) %
RTISSUE/PLASMA% (mean±SEM) Supernatant [3]: 2.54 (± 0.39) %
RTISSUE/PLASMA% (mean±SEM) Thalamus [3]: 4.34 (± 0.83) %
RTISSUE/PLASMA% (mean±SEM) Caudate putamen [4]: 5.40 (± 1.00) %
RTISSUE/PLASMA% (mean±SEM) Cerebellum [4]: 6.54 (± 0.70) %
RTISSUE/PLASMA% (mean±SEM) Choroid plexus [4]: 535.95 (± 107.86) %
RTISSUE/PLASMA% (mean±SEM) Corpus callosum [4]: 9.17 (± 2.67) %
RTISSUE/PLASMA% (mean±SEM) Frontal cortex [4]: 6.23 (± 0.92) %
RTISSUE/PLASMA% (mean±SEM) Hippocampus [4]: 5.60 (± 1.43) %
RTISSUE/PLASMA% (mean±SEM) Homogenate [4]: 6.20 (± 0.97) %
RTISSUE/PLASMA% (mean±SEM) Hypothalamus [4]: 8.14 (± 1.75) %
RTISSUE/PLASMA% (mean±SEM) Occipital cortex [4]: 5.67 (± 0.99) %
RTISSUE/PLASMA% (mean±SEM) Pellet [4]: 13.19 (± 1.79) %
RTISSUE/PLASMA% (mean±SEM) Pineal gland [4]: 361.76 (± 79.03) %
RTISSUE/PLASMA% (mean±SEM) Pituitary gland [4]: 203.27(± 32.85) %
RTISSUE/PLASMA% (mean±SEM) Pons [4]: 10.72 (± 1.82) %
RTISSUE/PLASMA% (mean±SEM) Supernatant [4]: 3.00 (± 0.43) %
RTISSUE/PLASMA% (mean±SEM) Thalamus [4]: 5.95 (± 0.92) %
Accumulation corrected for vascular space, hippocampus (30 minutes of perfusion): 6.9%
Accumulation corrected for vascular space, hypothalamus (30 minutes of perfusion): 15%
Accumulation corrected for vascular space, pons (30 minutes of perfusion): 10.9%
RTISSUE/PLASMA% (mean ± SEM) of [^3H]pentamidine (Caudate putamen, 0.01% F68 + 15.7 nM pent): 6.90 (± 1.58) %
RTISSUE/PLASMA% (mean ± SEM) of [^3H]pentamidine (Caudate putamen, 0.1% F68 + 15.7 nM pent): 10.41 (± 1.18) %
RTISSUE/PLASMA% (mean ± SEM) of [^3H]pentamidine (Caudate putamen, 0.5% F68 + 15.7 nM pent): 13.07 (± 3.45) %
RTISSUE/PLASMA% (mean ± SEM) of [^3H]pentamidine (Caudate putamen, Control (15.7 nM pent)): 8.65 (± 0.28) %
RTISSUE/PLASMA% (mean ± SEM) of [^3H]pentamidine (Cerebellum, 0.01% F68 + 15.7 nM pent): 9.38 (± 2.47) %
